From patent US20140088124A1, “IMIDAZOLE DERIVATIVES” (priority 2011, published 2014) come the findings set out here.

In one experiment the target is T1, human DGAT1 (Homo sapiens, UniProt O75907).
T1 sequence (O75907 1-488): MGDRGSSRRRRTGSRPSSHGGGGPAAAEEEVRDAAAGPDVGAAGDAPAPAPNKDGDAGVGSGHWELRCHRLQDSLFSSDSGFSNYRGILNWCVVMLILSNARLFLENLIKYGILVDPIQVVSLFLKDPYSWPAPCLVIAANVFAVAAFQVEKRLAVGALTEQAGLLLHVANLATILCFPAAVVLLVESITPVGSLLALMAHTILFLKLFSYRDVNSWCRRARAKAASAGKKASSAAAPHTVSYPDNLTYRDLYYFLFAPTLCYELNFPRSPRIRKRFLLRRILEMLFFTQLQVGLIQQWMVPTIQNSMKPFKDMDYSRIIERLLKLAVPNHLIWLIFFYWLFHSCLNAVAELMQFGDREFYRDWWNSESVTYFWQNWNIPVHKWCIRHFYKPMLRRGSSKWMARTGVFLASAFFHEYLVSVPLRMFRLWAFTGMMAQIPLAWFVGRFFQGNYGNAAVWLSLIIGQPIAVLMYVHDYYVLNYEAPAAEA
In words: DGAT1 CPM Assay. The experiment is classed as biochemical. As to conditions: human DGAT1, CPM fluorescence, 1 hour incubation at room temperature. On the procedure: 20 uL of 90 uM CPM reagent in 90% ethanol was added after 1 hour incubation at room temperature.
`C[C@]1(C(=O)O)CC[C@H](OC2CCN(c3ccc(-c4nc5ccc(F)cc5[nH]4)cn3)CC2)CC1` [Example 99]: inhibition was half-maximal at 9 nM (IC50). Regarding `C[C@]1(C(=O)O)CC[C@H](OC2CCN(c3ccc(-c4nc5ccc(C(F)(F)F)cc5[nH]4)cn3)CC2)CC1` [Example 100], the IC50 (commonly the concentration that gives 50% inhibition) was 2 nM.

The molecule `C[C@]1(C(=O)O)CC[C@H](OC2CCN(c3ccc(-c4nc5ccccc5[nH]4)cn3)CC2)CC1` [Example 101] returned an IC50 of 27 nM.

Turning to `C[C@]1(C(=O)O)CC[C@H](OC2CCN(c3ccc(-c4nc5ccc(Cl)cc5[nH]4)cn3)CC2)CC1` [Example 102], inhibition was half-maximal at 4 nM (IC50). Regarding `C[C@]1(C(=O)O)C[C@H](OC2CCN(c3ccc(-c4nc5cc(C(F)(F)F)ccc5[nH]4)cn3)CC2)C1` [Example 103], the IC50 was 4 nM. As to `C[C@]1(C(=O)O)C[C@@H](OC2CCN(c3ccc(-c4nc5cc(C(F)(F)F)ccc5[nH]4)cn3)CC2)C1` [Example 104], the 50% inhibitory concentration (IC50) came to 6 nM. With `C[C@]1(C(=O)O)CC[C@@H](OC2CCN(c3ccc(-c4nc5ccccc5[nH]4)cn3)CC2)CC1` [Example 105, cis-4-({1-[5-(1H-benzimidazol-2-yl)pyridin-2-yl}piperidin-4-yl]oxy)-1-methylcyclohexanecarboxylic acid], the IC50 was found to be 44 nM.

In turn, `C[C@]1(C(=O)O)CC[C@@H](OC2CCN(c3ccc(-c4nc5cc(F)c(F)cc5[nH]4)cn3)CC2)CC1` [Example 106] yielded an IC50 of 15 nM.

`C[C@]1(C(=O)O)CC[C@@H](OC2CCN(c3ccc(-c4nc5ncc(C(F)(F)F)cc5[nH]4)cn3)CC2)CC1` [Example 107]: the IC50 was 48 nM. Still for that read-out and setting: to `C[C@]1(C(=O)O)CC[C@@H](OC2CCN(c3ccc(-c4nc5ncc(Cl)cc5[nH]4)cn3)CC2)CC1` [Example 108] belongs 125 nM; to `C[C@]1(C(=O)O)CC[C@@H](OC2CCN(c3ccc(-c4nc5cc(Cl)c(Cl)cc5[nH]4)cn3)CC2)CC1` [Example 109], 2 nM. The same measure, in the same setting: to `Cc1ccc2[nH]c(-c3ccc(N4CCC(O[C@H]5CC[C@@](C)(C(=O)O)CC5)CC4)nc3)nc2n1` [Example 110] belongs 425 nM; to `C[C@]1(C(=O)O)CC[C@@H](OC2CCN(c3ccc(-c4nc5cc(F)ccc5[nH]4)cn3)CC2)CC1` [Example 111], 21 nM. The molecule `COC(=O)c1cccc(OC2CCN(c3ccc(-c4nc5cc(C(F)(F)F)ccc5[nH]4)cn3)CC2)c1` [Example 113, Methyl 3-[(1-{5-[5-(trifluoromethyl)-1H-benzimidazol-2-yl]pyridin-2-yl}piperidin-4-yl)oxy]benzoate] showed an IC50 of 520 nM. Still for that read-out and setting: under `O=C(O)c1cccc(OC2CCN(c3ccc(-c4nc5cc(C(F)(F)F)ccc5[nH]4)cn3)CC2)c1` [Example 114, 3-[(1-{5-[5-(trifluoromethyl)-1H-benzimidazol-2-yl]pyridin-2-yl}piperidin-4-yl)oxy]benzoic acid] stands 9 nM; under `O=C(O)c1cncc(OC2CCN(c3ccc(-c4nc5cc(C(F)(F)F)ccc5[nH]4)cn3)CC2)c1` [Example 115, 5-[(1-{5-[5-(trifluoromethyl)-1H-benzimidazol-2-yl]pyridin-2-yl}piperidin-4-yl)oxy]pyridine-3-carboxylic acid], 28 nM; under `COC(=O)c1cccc(COC2CCN(c3ccc(-c4nc5cc(C(F)(F)F)ccc5[nH]4)cn3)CC2)c1` [Example 116], 99 nM. In turn, `O=C(O)c1cccc(COC2CCN(c3ccc(-c4nc5cc(C(F)(F)F)ccc5[nH]4)cn3)CC2)c1` [Example 117] yielded an IC50 of 4 nM.

As to `O=C1CN([C@H]2CC[C@H](OC3CCN(c4ccc(-c5nc6cc(C(F)(F)F)ccc6[nH]5)cn4)CC3)CC2)S(=O)(=O)N1` [Example 118], the IC50 amounted to 5 nM. In turn, `O=C1CN([C@H]2CC[C@H](OC3CCN(c4ccc(-c5nc6cc(F)c(F)cc6[nH]5)cn4)CC3)CC2)S(=O)(=O)N1` [Example 119] had an IC50 of 4 nM.

Regarding `COc1ccc2nc(-c3ccc(N4CCC(O[C@H]5CC[C@H](N6CC(=O)NS6(=O)=O)CC5)CC4)nc3)[nH]c2n1` [Example 120], half-maximal inhibition (IC50) required 29 nM. `O=C1CN([C@H]2CC[C@@H](OC3CCN(c4ccc(-c5nc6ccccc6[nH]5)cn4)CC3)CC2)S(=O)(=O)N1` [Example 121]: 45 nM corresponded to half-maximal inhibition (IC50). `O=C1CN([C@H]2CC[C@@H](OC3CCN(c4ccc(-c5nc6cc(F)c(F)cc6[nH]5)cn4)CC3)CC2)S(=O)(=O)N1` [Example 122] came in with an IC50 of 10 nM. Still for that read-out and setting: to `O=C(O)c1ccc(OC2CCN(c3ccc(-c4nc5ccc(C(F)(F)F)cc5[nH]4)cn3)CC2)nc1` [Example 123] belongs 2 nM; to `O[C@@H]1CO[C@H]2[C@@H]1OC[C@@H]2OC1CCN(c2ccc(-c3nc4cc(F)ccc4[nH]3)cn2)CC1` [Example 125], 64 nM. Still for that read-out and setting: to `O=C(O)c1ncc(OC2CCN(c3ccc(-c4nc5cc(Cl)ccc5[nH]4)cn3)CC2)cn1` [Example 127, 5-(1-(5-(5-chloro-1H-benzo[d]imidazol-2-yl)pyridin-2-yl)piperidin-4-yloxy)pyrimidine-2-carboxylic acid] belongs 100 nM. In turn, `O=C(O)c1cncc(OC2CCN(c3ccc(-c4nc5cc(Cl)ccc5[nH]4)cn3)CC2)c1` [Example 128] displayed an IC50 of 324 nM.

`O=C(O)Cc1ccc(OC2CCN(c3ccc(-c4nc5cc(Cl)ccc5[nH]4)cn3)CC2)cc1` [Example 129] showed an IC50 of 1 nM. Same read-out and setting: under `O=C(O)c1cc(OC2CCN(c3ccc(-c4nc5cc(Cl)ccc5[nH]4)cn3)CC2)no1` [Example 130] stands 15 nM.

In turn, `O=C(O)c1ccc(OC2CCN(c3ccc(-c4nc5cc(Cl)ccc5[nH]4)cn3)CC2)cc1` [Example 131] gave an IC50 of 2 nM.

Consider `O=C(O)c1cccc(OC2CCN(c3ccc(-c4nc5cc(Cl)ccc5[nH]4)cn3)CC2)c1` [Example 132], for which it took 2 nM to reach half-maximal inhibition (IC50). On the same count and under the same terms, under `O=C(O)[C@H]1[C@@H]2C[C@H](OC3CCN(c4ccc(-c5nc6cc(C(F)(F)F)ccc6[nH]5)cn4)CC3)C[C@@H]21` [Example 133, (1R,3R,5S,6r)-3-[(1-{5-[5-(trifluoromethyl)-1H-benzimidazol-2-yl]pyridin-2-yl}piperidin-4-yl)oxy]bicyclo[3.1.0]hexane-6-carboxylic acid] stands 2 nM; under `O=C(O)[C@H]1[C@@H]2C[C@@H](OC3CCN(c4ccc(-c5nc6cc(C(F)(F)F)ccc6[nH]5)cn4)CC3)C[C@@H]21` [Example 134], 4 nM. In turn, `O=C(O)[C@@H]1[C@@H]2C[C@H](OC3CCN(c4ccc(-c5nc6cc(C(F)(F)F)ccc6[nH]5)cn4)CC3)C[C@@H]21` [Example 135] yielded an IC50 of 11 nM. Regarding `O=C(O)[C@@H]1[C@@H]2C[C@@H](OC3CCN(c4ccc(-c5nc6cc(C(F)(F)F)ccc6[nH]5)cn4)CC3)C[C@@H]21` [Example 136], the IC50 worked out at 6 nM. Consider `O=C(O)C[C@H]1CC[C@H](O[C@H]2CCN(c3ccc(-c4nc5cc(F)ccc5[nH]4)cn3)C2)CC1` [Example 138], for which the half-maximal inhibitory concentration (IC50) was determined as 45 nM.

For the next experiment, the target named is T2, human DGAT1 enzyme expressed in Sf9 insect cells prepared as microsomes (Homo sapiens, UniProt O75907).
T2 construct: made in house; host or cells: Sf9 insect cells (microsomes)
T2 sequence (O75907 1-488): T1 sequence (O75907 1-488)
The experiment in a line: in vitro assay to identify DGAT1 inhibitors ([14C]-palmitoyl-CoA, wheat germ agglutinin beads, TopCount). The note with it: 2 hours at room temperature. The experiment is classed as biochemical. On the procedure: If compounds 141-162 were assayed they were assayed as follows: the in vitro assay to identify DGAT1 inhibitors uses human DGAT1 enzyme expressed in Sf9 insect cells prepared as microsomes. The reaction is initiated by the addition of the combined substrates 1,2-dioleoyl-sn-glycerol and [^14C]-palmitoyl-Co A and incubated with test compounds and microsomal membranes for 2 hours at room temperature. The assay is stopped by adding 0.5 mg wheat germ agglutinin beads in assay buffer with 1% Brij-35 and 1% 3-cholamidopropyldimethyl-ammonio-1-propane sulfonate. Plates are sealed with TopSeal and incubated for 18 hours to allow the radioactive triglyceride product to come into proximity with the bead. Plates are read on a TopCount instrument.
Percent inhibition was calculated as the percent of (test compound inhibition minus non-specific binding) relative to (total binding minus non-specific binding). IC50 values were determined by curve fitting the data to a Sigmoidal dose-response in GraphPad Prism utilizing the following equation:
Y=A+(B−A)/(1+10̂((Log IC50−X))),
where A and B are the bottom and top of the curve (highest and lowest inhibition), respectively, and X is the logarithm of concentration.
Regarding `COC(=O)c1cccc(OCC2CCN(c3ccc(-c4nc5cc(C(F)(F)F)ccc5[nH]4)cn3)CC2)c1` [Example 141, methyl 3-[[1-[5-[5-(trifluoromethyl)-1H-benzol[d]imidazol-2-yl]pyridine-2-yl]piperidin-4-yl]methoxy]benzoate], the IC50 turned out to be 2500 nM.

The molecule `O=C(O)c1cccc(OCC2CCN(c3ccc(-c4nc5cc(C(F)(F)F)ccc5[nH]4)cn3)CC2)c1` [Example 142, 3-[[1-[5-[5-(trifluoromethyl)-1H-benzol[d]imidazol-2-yl]pyridine-2-yl]piperidin-4-yl]methoxy]benzoic acid] had an IC50 of 13 nM.

The molecule `COC(=O)c1cccc(OCC2CCN(c3ccc(-c4nc5cc(Cl)ccc5[nH]4)cn3)CC2)c1` [Example 143] showed a half-inhibitory concentration (IC50) of 1830 nM. As for `O=C(O)c1cccc(OCC2CCN(c3ccc(-c4nc5cc(Cl)ccc5[nH]4)cn3)CC2)c1` [Example 144], 8 nM corresponded to half-maximal inhibition (IC50). The molecule `O=C(O)c1cc(OCC2CCN(c3ccc(-c4nc5cc(Cl)ccc5[nH]4)cn3)CC2)cc(C(=O)O)c1` [Example 146, 5-((1-(5-(5-chloro-1H-benzo[d]imidazol-2-yl)pyridin-2-yl)piperidin-4-yl)methoxy)isophthalic acid] had an IC50 of 18 nM. As to `O=C(O)c1cc(F)ccc1OCC1CCN(c2ccc(-c3nc4cc(Cl)ccc4[nH]3)cn2)CC1` [Example 148, 2-[[1-[5-(6-chloro-1H-benzimidazol-2-yl)-2-pyridinyl]-4-piperidinyl]methoxy]-5-fluorobenzoic acid], the IC50 was found to be 1070 nM.
